# According to publication PMC7594088:
# Test: ring-closing metathesis (C=C bond) of side-chain olefins, second-generation Grubbs catalyst 20 mol %, under argon, 2 h
# Details: CH2Cl2, 20.0 mM, 25.0 °C
compound,measurement,setting,value
COC(=O)[C@@H]1COCC=CCO[C@H]2C[C@@H](C(=O)N1)N(C(=O)OC(C)(C)C)C2 [Boc-cis-Hyp(OAllyl)-Ser(OAllyl)-OMe (cis-4-hydroxy-L-Pro)],"ring closure, isolated yield","from C=CCOC[C@H](NC(=O)[C@@H]1C[C@H](OCC=C)CN1C(=O)OC(C)(C)C)C(=O)OC, 13-membered ring, 2.0 h",55%
COC(=O)C1(NC(=O)[C@H](CC(C)C)NC(=O)[C@H](CC(C)C)NC(=O)C2(NC(=O)[C@H](CC(C)C)NC(=O)[C@H](CC(C)C)NC(=O)[C@@H]3COCCCC=CCO[C@H]4C[C@@H](C(=O)N3)N(C(=O)OC(C)(C)C)C4)CCCC2)CCCC1,"ring closure, isolated yield","from C=CCCCOC[C@H](NC(=O)[C@@H]1C[C@H](OCC=C)CN1C(=O)OC(C)(C)C)C(=O)N[C@@H](CC(C)C)C(=O)N[C@@H](CC(C)C)C(=O)NC1(C(=O)N[C@@H](CC(C)C)C(=O)N[C@@H](CC(C)C)C(=O)NC2(C(=O)OC)CCCC2)CCCC1, 15-membered ring, 2.0 h",93%
COC(=O)C1(NC(=O)[C@H](CC(C)C)NC(=O)[C@H](CC(C)C)NC(=O)[C@@H]2COCCCC=CC[C@]3(CCCN3C(=O)OCc3ccccc3)C(=O)N[C@@H](CC(C)C)C(=O)N[C@@H](CC(C)C)C(=O)N2)CCCC1,"ring closure, isolated yield","from C=CCCCOC[C@H](NC(=O)[C@H](CC(C)C)NC(=O)[C@H](CC(C)C)NC(=O)[C@]1(CC=C)CCCN1C(=O)OCc1ccccc1)C(=O)N[C@@H](CC(C)C)C(=O)N[C@@H](CC(C)C)C(=O)NC1(C(=O)OC)CCCC1, 18-membered ring, 2.0 h",96%
COC(=O)C1(NC(=O)[C@H](CC(C)C)NC(=O)[C@H](CC(C)C)NC(=O)C2(NC(=O)[C@H](CC(C)C)NC(=O)[C@H](CC(C)C)NC(=O)[C@@H]3COCC=CCO[C@H]4C[C@@H](C(=O)N3)N(C(=O)OC(C)(C)C)C4)CCCC2)CCCC1,"ring closure, isolated yield","from C=CCOC[C@H](NC(=O)[C@@H]1C[C@H](OCC=C)CN1C(=O)OC(C)(C)C)C(=O)N[C@@H](CC(C)C)C(=O)N[C@@H](CC(C)C)C(=O)NC1(C(=O)N[C@@H](CC(C)C)C(=O)N[C@@H](CC(C)C)C(=O)NC2(C(=O)OC)CCCC2)CCCC1, 13-membered ring",0%
COC(=O)[C@@H]1COCC=CCO[C@@H]2C[C@@H](C(=O)N1)N(C(=O)OC(C)(C)C)C2,"ring closure, isolated yield","from C=CCOC[C@H](NC(=O)[C@@H]1C[C@@H](OCC=C)CN1C(=O)OC(C)(C)C)C(=O)OC, 13-membered ring",0%
